What was measured:
Assay in all cases: relative viability (nuclei count vs DMSO), 5 days (fraction); higher = more cells survive
NCI-H1355 = system: NCI-H1355
Outline: (§1)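 Lung cancer cell lines in 1536-well plates were dosed by pin tool the day after seeding, either with one drug alone or with a fixed anchor-drug dose plus five library-drug doses (not always all listed) in √10 steps. After 5 days, cells were fixed and their nuclei stained in one step (final 0.05% Triton X-100, 1% formaldehyde, 1 ug/ml Hoechst), then counted on 4× images. Relative viability is the nuclei count in treated wells divided by that in vehicle wells. Values are medians of duplicate plates.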

SW 900 = system: SW 900
Outline: as §1

NCI-H3122 = system: NCI-H3122
Outline: as §1

NCI-H1755 = system: NCI-H1755
Outline: as §1

NCI-H358 = system: NCI-H358
Outline: as §1

A-427 = system: A-427
Outline: as §1

EKVX = system: EKVX
Outline: as §1

NCI-H1666 = system: NCI-H1666
Outline: as §1

NCI-H650 = system: NCI-H650
Outline: as §1

NCI-H838 = system: NCI-H838
Outline: as §1

NCI-H322M = system: NCI-H322M
Outline: as §1

NCI-H1944 = system: NCI-H1944
Outline: as §1

NCI-H441 = system: NCI-H441
Outline: as §1

NCI-H2347 = system: NCI-H2347
Outline: as §1

LK-2 = system: LK-2
Outline: as §1

ChaGo-K-1 = system: ChaGo-K-1
Outline: as §1

NCI-H2085 = system: NCI-H2085
Outline: as §1

NCI-H460 = system: NCI-H460
Outline: as §1

NCI-H1734 = system: NCI-H1734
Outline: as §1

H3255 = system: H3255
Outline: as §1

NCI-H596 = system: NCI-H596
Outline: as §1

With CCCCCCCCCCCC1=C(O)C(=O)C=C(O)C1=O [Embelin] + NC(=O)Nc1cc(-c2cccc(F)c2)sc1C(=O)N[C@H]1CCCNC1 [AZD7762] (partner 0.2 µM) the relative viability (NCI-H1355; first compound 0.08 µM) was 0.821, the relative viability (NCI-H1355; first compound 0.8 µM) was 0.802 and the relative viability (NCI-H1355; first compound 2.53 µM) was 0.836. It also gave a relative viability (NCI-H1355; first compound 8 µM) of 0.743, a relative viability (SW 900; first compound 0.08 µM) of 0.556 and a relative viability (SW 900; first compound 0.8 µM) of 0.624. The relative viability (SW 900; first compound 2.53 µM) was 0.502, the relative viability (SW 900; first compound 8 µM) was 0.628 and the relative viability (NCI-H3122; first compound 0.08 µM) was 0.946. For the same compound, the relative viability (NCI-H3122; first compound 0.8 µM) was 1.06, the relative viability (NCI-H3122; first compound 2.53 µM) was 1.06 and the relative viability (NCI-H3122; first compound 8 µM) was 1.01. It also gave a relative viability (NCI-H1755; first compound 0.08 µM) of 0.432, a relative viability (NCI-H1755; first compound 0.8 µM) of 0.477 and a relative viability (NCI-H1755; first compound 2.53 µM) of 0.45. The relative viability (NCI-H1755; first compound 8 µM) was 0.429, the relative viability (NCI-H358; first compound 0.08 µM) was 0.604 and the relative viability (NCI-H358; first compound 0.8 µM) was 0.739. It also gave a relative viability (NCI-H358; first compound 2.53 µM) of 0.517, a relative viability (NCI-H358; first compound 8 µM) of 0.491 and a relative viability (A-427; first compound 0.08 µM) of 0.75. For the same compound, the relative viability (A-427; first compound 0.8 µM) was 0.877, the relative viability (A-427; first compound 2.53 µM) was 0.737 and the relative viability (A-427; first compound 8 µM) was 0.452. For the same compound, the relative viability (EKVX; first compound 0.08 µM) was 0.698, the relative viability (EKVX; first compound 0.8 µM) was 0.748 and the relative viability (EKVX; first compound 2.53 µM) was 0.662. For the same compound, the relative viability (EKVX; first compound 8 µM) was 0.749, the relative viability (NCI-H1666; first compound 0.08 µM) was 0.871 and the relative viability (NCI-H1666; first compound 0.8 µM) was 0.885. For the same compound, the relative viability (NCI-H1666; first compound 2.53 µM) was 0.782, the relative viability (NCI-H1666; first compound 8 µM) was 0.922 and the relative viability (NCI-H650; first compound 0.08 µM) was 0.889. For the same compound, the relative viability (NCI-H650; first compound 0.8 µM) was 1.03, the relative viability (NCI-H650; first compound 2.53 µM) was 1.01 and the relative viability (NCI-H650; first compound 8 µM) was 1.27. For the same compound, the relative viability (NCI-H838; first compound 0.08 µM) was 0.946, the relative viability (NCI-H838; first compound 0.8 µM) was 1.05 and the relative viability (NCI-H838; first compound 2.53 µM) was 0.912. For the same compound, the relative viability (NCI-H838; first compound 8 µM) was 0.992, the relative viability (NCI-H322M; first compound 0.08 µM) was 0.585 and the relative viability (NCI-H322M; first compound 0.8 µM) was 0.632. It also gave a relative viability (NCI-H322M; first compound 2.53 µM) of 0.568, a relative viability (NCI-H322M; first compound 8 µM) of 0.472 and a relative viability (NCI-H1944; first compound 0.08 µM) of 0.449. The relative viability (NCI-H1944; first compound 0.8 µM) was 0.566, the relative viability (NCI-H1944; first compound 2.53 µM) was 0.526 and the relative viability (NCI-H1944; first compound 8 µM) was 0.436. For the same compound, the relative viability (NCI-H441; first compound 0.08 µM) was 1.09, the relative viability (NCI-H441; first compound 0.8 µM) was 1.24 and the relative viability (NCI-H441; first compound 2.53 µM) was 1.18. It also gave a relative viability (NCI-H441; first compound 8 µM) of 1.36, a relative viability (NCI-H2347; first compound 0.08 µM) of 0.841 and a relative viability (NCI-H2347; first compound 0.8 µM) of 0.85. The relative viability (NCI-H2347; first compound 2.53 µM) was 0.722, the relative viability (NCI-H2347; first compound 8 µM) was 0.67 and the relative viability (LK-2; first compound 0.08 µM) was 0.497. It also gave a relative viability (LK-2; first compound 0.8 µM) of 0.543, a relative viability (LK-2; first compound 2.53 µM) of 0.497 and a relative viability (LK-2; first compound 8 µM) of 0.351. The relative viability (ChaGo-K-1; first compound 0.08 µM) was 0.861, the relative viability (ChaGo-K-1; first compound 0.8 µM) was 0.922 and the relative viability (ChaGo-K-1; first compound 2.53 µM) was 0.922. For the same compound, the relative viability (ChaGo-K-1; first compound 8 µM) was 0.874, the relative viability (NCI-H2085; first compound 0.08 µM) was 0.956 and the relative viability (NCI-H2085; first compound 0.8 µM) was 1.09. It also gave a relative viability (NCI-H2085; first compound 2.53 µM) of 0.93, a relative viability (NCI-H2085; first compound 8 µM) of 1.03 and a relative viability (NCI-H460; first compound 0.08 µM) of 0.658. It also gave a relative viability (NCI-H460; first compound 0.8 µM) of 0.717, a relative viability (NCI-H460; first compound 2.53 µM) of 0.585 and a relative viability (NCI-H460; first compound 8 µM) of 0.378. It also gave a relative viability (NCI-H1734; first compound 0.08 µM) of 0.587, a relative viability (NCI-H1734; first compound 0.8 µM) of 0.692 and a relative viability (NCI-H1734; first compound 2.53 µM) of 0.593. The relative viability (NCI-H1734; first compound 8 µM) was 0.622, the relative viability (H3255; first compound 0.08 µM) was 0.826 and the relative viability (H3255; first compound 0.8 µM) was 0.975. The relative viability (H3255; first compound 2.53 µM) was 0.894, the relative viability (H3255; first compound 8 µM) was 0.913 and the relative viability (NCI-H596; first compound 0.08 µM) was 1.08. The relative viability (NCI-H596; first compound 0.8 µM) was 1.27, the relative viability (NCI-H596; first compound 2.53 µM) was 1.26 and the relative viability (NCI-H596; first compound 8 µM) was 1.01.

From the supplement of paper PMC10307832
